Starred links: 1 amine or outer side, 2 acyl side, 3 side chain; linkers in the order of their positions; H or OH if unused. Residues, ends and D or L forms follow the SMILES beside them. Groups on a side chain read outwards from the residue. *: point of attachment. Pteroyl = Nc1nc2ncc(CNc3ccc(C(=O)*)cc3)nc2c(=O)[nH]1; γGlu = O=C(O)[C@H](CCC(=O)[*:2])N[*:1]
Tests used:
[1] = test system: normal human lymphocytes; conditions: 3.125-800 g/ml as printed, 2 days
Method: Growth media used is the RPMI-1640 (Gibco Laboratories, Grand Island, N.Y.) supplemented with 25 mM Hepes buffer, 10% FBS serum (Gibco), 100 U/ml penicillin/streptomycin, 50 μg/ml gentamycin, 2 mM L-glutamin, 1× nonessential amino acids (Gibco)
In a 50-ml centrifugation tube, add 10 ml of Lymphoprep™. 2. Mix 15 ml blood and 15 ml HBSS-buffer (containing heparin). 3. Carefully add the blood mixture from step 2, to the tubes containing Lymphoprep™ without mixing the phases. 4. Centrifuge at 450 g at room temperature for 45 min. 5. Isolate the Buffy-coat layer containing the PBMC (peripheral blood mononuclear cells), and place in a fresh tube. 6. Add 7 ml HBSS-buffer to the tube to wash the PBMC. 7. Centrifuge 5-10 min 600 g. 8. Remove the supernatant and wash the PBMC again with a total of 10-ml HBSS-. 9. Suspend the cells in complete media RPMI 1640. Incubate the cells in a small culture flask for 1 hour at 37° C. 10. Remove the unattached cells (lymphocytes) from the small culture flask and dilute the cells to a concentration of 5×10^5 cell/ml. 11. Dissolve drug at 10 mg/ml in PBS. 12. Add 100 μl of growth media to the rest of the wells. 13. Prepare 100 l of a series of concentration of 1600, 800, 400, 200, 100, 50, 25, 12.5, 6.25 μg/ml were made. Triplicate wells were used for each concentration as well as the control (0.0 g/ml), for each of Drug1, 2 and 3. 14. […]

[2] = test system: SW480 cells; assay: Dose response in SW480; format: cell-based, human; conditions: 2 days
Method: 1. Dissolve the drug at a concentration of 10 mg/ml in PBS.
3. A confluent flask of SW480 cells was treated with trypsin and the cells were suspended in growth media at concentrations of 5×10^5 cells/ml.
5. Incubate at 37° C., 5% CO2 for 2 days.

[3] = test system: R273H/P309S p53 mutant in SW480.7 cells; assay: RT-PCR analysis of mRNA level of p53 transactivated genes; format: cell-based, Homo sapiens (human); conditions: ligand transfected SW480.7 compared with empty pCEP4 transfected SW480.7, RT-PCR
Source text: Total RNA was collected, from two wells of one ligand transfected SW480.7 plate and one pCEP4 transfected SW480.7 plate each day on day 0, day 1, and day 2 after transfection. Thus RNA samples were harvested as SW480.7/Ligand-0 day, SW480.7/Ligand-1 day, SW480.7/Ligand-2 day, SW480.7/pCEP4-0 day, SW480.7/pCEP4-1 day, SW480.7/pCEP4-2 day. Protocol for total RNA extraction by TRIZOL® Reagent was according to that given by Life Technology:
First-Strand cDNA Synthesis • 1. For each RNA sample, combine the following reagents in a sterile 0.2-ml reaction tube:
• 2. Mix and spin the tube briefly. • 3. Incubate the tube at 70° C. in a thermal cycler for 2 min. • 4. Spin the tube briefly to collect contents at the bottom. Keep tube at room temperature. • 5. Add the following to each reaction tube:
• 6. Gently vortex and spin the tubes briefly. • 7. Incubate the tubes at 42° C. for 1 hr in an air incubator or cycler. • 8. Add 40 μl TE buffer (10 mM Tris (pH7.6), 1 mM EDTA) to dilute the first-strand reaction product. • 9. Heat tubes at 72° C. for 7 min to inactivate reverse transcriptase. • 10. Samples can be stored at −20° C. for up to three months. cDNA Amplification by PCR • 1. Preheat the PCR thermal cycler to 95° C. • 2. For each reaction, 5 μl of diluted first-strand cDNA and 5 μl of deionized water are added to a labeled 0.2-ml reaction tube. • 3. Prepare a master mix for all reaction tubes, plus one additional tube. For each reaction:
• 4. Mix by vortexing and spin the tube briefly. • 5. Aliquot 40 μl of the PCR Master Mix into each tube from Step 2. • 6. Cap the tube, and place it in the preheated thermal cycler. • 7. PCR was carried out using the following cycling parameters:
• 8. Electrophoreses 5 μl of each PCR reaction alongside 0.1 μg of 1-kb DNA ladder on a 1.2% agarose/EtBr gel in 1× TBE buffer. Results

[4] = test system: SW480.7 cells; assay: Validation of selected peptide ligand: cell proliferation/death after transfection; format: cell-based, Homo sapiens (human); conditions: SW480.7, ligand expressed from pCEP4 plasmid, 15 days without puromycin selection
Method: (§1) Cells SW480.7, U-2OS, and Sa-os2 were transfected with peptide ligand and pCEP4 parallelly using the calcium phosphate method.
(§2) After transfection, cells were cultured without drug selection and diluted at the ratio of 1:100 every five days. Cell proliferation status was closely observed until ligand transfected SW480.7 cells died out. Life staining with 0.4% trypan blue was applied to determine the death of the cells. Dead cells can not exclude the dye thus were stained blue. Living cells can pump the dye outside thus were not stained.

[5] = test system: U2-OS cells; assay: as above; format: cell-based, Homo sapiens (human); conditions: U2-OS (wild type p53), ligand expressed from pCEP4 plasmid, without puromycin selection
Method: as §1, §2

[6] = test system: Saos-2 cells; assay: as above; format: cell-based, Homo sapiens (human); conditions: Saos-2 (p53 null), ligand expressed from pCEP4 plasmid, without puromycin selection
Method: as §1, §2

[7] = molecular target: TrpR (G85E) (Escherichia coli, UniProt P0A881, G85E); conditions: peptide expressed from pPep plasmid
Method: (§3) A λRTLF culture containing pTrpRep(WT), pTrpRep(T44M), pTrprG85E, and pTrpRep(None) were transformed with one of pPep(MGFLR) or pPep(MGFWR), and grown in both BTTRG and BTTRA media to an OD of 0.6 at wavelength 600 at 30° C. with shaking. Two hundred microliters of cultures assayed for β-galactosidase levels at wavelength 405 nm as described in Fenton et al (1998) BBRC 242(1):71-78.
(§4) λRTLF cultures containing one of pTrpRep(WT), pTrpRep(T44M), pTrprG85E, or pTrpRep(None) were grown in BTTRG media supplemented with one of following synthesized peptides MGFLR, MGFWR, MGRRW, FLR, FWR at a concentration of 1 mM. The cultures were grown to an OD of 0.6 at wavelength 600 at 30° C. with shaking. Two hundred microlitres of cultures assayed for -galactosidase levels at wavelength 405 as described in Fenton et al (1998) supra.

[8] = molecular target: T1, TrpR(T44M) (Escherichia coli, UniProt P0A881, T44M); conditions: arabinose induced expression, both in the presence and absence of tryptophan
Method: RNA was electophoresed through a 1% formaldehyde gel according to Sambrooke et al's Manual (1989). The gel was capillary blotted onto nitrocellulose filter paper using the standard protocols. RNA was UV crosslinked by 45 seconds of UV exposure. The filter was prehydridised for 3 hours at 65 C and then hybridised for 36 hours at 65° C. Hybridisation buffers were in accordance with Sambrook. The filter was dried at room temperature and placed in a phosphoimager cassette overnight. The filter was then scanned by Molecular Dynamics phosphoimager 400e (880 E. Argues Ave, Sunnyvale Calif. 94086).

[9] = molecular target: T1, TrpR(T44M); conditions: peptide expressed from pPep plasmid, arabinose induced
Method: as §3, §4
The cultures were grown to an OD of 0.6 at wavelength 600 at 30° C. with shaking.

## CSCC[C@H](N)C(=O)NCC(=O)N[C@@H](Cc1c[nH]c2ccccc12)C(=O)N[C@@H](CS)C(=O)N[C@H](C(=O)N[C@@H](CCCCNC(=O)CC[C@H](NC(=O)c1ccc(NCc2cnc3nc(N)[nH]c(=O)c3n2)cc1)C(=O)O)C(=O)O)[C@@H](C)O [Drug 2, MGWCT-K-Folic] (H-MGWCTK([γGlu-Pteroyl])-OH; N-terminus and C-terminus assumed)
[1]
  Effect on normal human lymphocytes (number of surviving cells): no effect
[2]; 3.125-800 μg/ml
  Activity on metastatic cancer cells SW480 (number of surviving cells): best results
[2]; SW480 cells
  IC50 as molar amount per well: 0.0257 μmol/well

## MGWCT (peptide derivative) [Drug 3, Penta-peptide, no folate conjugation]
[3]
  mRNA level of 14-3-3σ: much higher
  mRNA level of CD95: much higher
  mRNA level of p21 (WAF1/Cip1): much higher
[4]
  Cell status after transfecting the ligand: could no longer attach to the wall and died
[5]
  Cell status after transfecting the ligand: growing well
[6]
  Cell status after transfecting the ligand: growing well

## MGFLR
[7]
  Restoration of TrpR mutant G85E function (β-galactosidase activity): did not restore
[8]
  Transcription of LacZ: repressed
  Transcription of PheS: repressed
[9]
  Restoration of TrpR(T44M) function (β-galactosidase activity): restored TrpR(T44M) function

## MGFWR
[7]
  Restoration of TrpR mutant G85E function (β-galactosidase activity): did not restore
[9]
  Restoration of TrpR(T44M) function (β-galactosidase activity): restored TrpR(T44M) function
